Legend:
Test in all cases: relative viability (nuclei count vs DMSO), 5 days (fraction); higher = more cells survive
[1] = tested on: NCI-H1395
Outline: (§1)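 One day after seeding in 1536-well plates, lung cancer cell lines were dosed by pin tool. Dosing was either single-drug or a fixed anchor-drug dose plus five library-drug doses (not always all listed) in √10 steps. After 5 days, nuclei were stained in one fix-and-stain step and counted on 4× images, and relative viability is the nuclei count of treated wells over that of vehicle wells, given as the median of duplicate plates.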

[2] = tested on: HOP-62
Outline: as §1

[3] = tested on: NCI-H838
Outline: as §1

[4] = tested on: NCI-H1793
Outline: as §1

[5] = tested on: NCI-H322M
Outline: as §1

[6] = tested on: NCI-H2009
Outline: as §1

[7] = tested on: UMC-11
Outline: as §1

[8] = tested on: PC-14
Outline: as §1

[9] = tested on: NCI-H647
Outline: as §1

[10] = tested on: NCI-H2228
Outline: as §1

[11] = tested on: NCI-H358
Outline: as §1

[12] = tested on: NCI-H1755
Outline: as §1

[13] = tested on: NCI-H1355
Outline: as §1

[14] = tested on: NCI-H1993
Outline: as §1

[15] = tested on: COR-L 105
Outline: as §1

[16] = tested on: COR-L23
Outline: as §1

[17] = tested on: SK-MES-1
Outline: as §1

[18] = tested on: NCI-H1734
Outline: as §1

[19] = tested on: NCI-H2347
Outline: as §1

[20] = tested on: NCI-H2170
Outline: as §1

[21] = tested on: HARA
Outline: as §1

[22] = tested on: EKVX
Outline: as §1

In the case of COc1cc(N2CCC(C(N)=O)CC2)ccc1Nc1nc(N)c(Cl)c(Nc2ccccc2S(=O)(=O)C(C)C)n1 [HG-5-88-01] + Cc1nc(NC(=O)N2CCC[C@H]2C(N)=O)sc1-c1ccnc(C(C)(C)C(F)(F)F)c1 [Alpelisib] (partner 2 µM), the relative viability ([1]; first compound 0.04 µM) is reported as 1.09, the relative viability ([1]; first compound 0.1265 µM) is reported as 1.06 and the relative viability ([1]; first compound 0.4 µM) is reported as 1.1. It also gave a relative viability ([1]; first compound 1.265 µM) of 0.909, a relative viability ([1]; first compound 4 µM) of 0.986 and a relative viability ([2]; first compound 0.04 µM) of 0.835. For the same compound, the relative viability ([2]; first compound 0.1265 µM) was 0.924, the relative viability ([2]; first compound 0.4 µM) was 0.999 and the relative viability ([2]; first compound 1.265 µM) was 0.981. The relative viability ([2]; first compound 4 µM) was 1.41, the relative viability ([3]; first compound 0.04 µM) was 1 and the relative viability ([3]; first compound 0.1265 µM) was 1.1. For the same compound, the relative viability ([3]; first compound 0.4 µM) was 0.917, the relative viability ([3]; first compound 1.265 µM) was 0.9 and the relative viability ([3]; first compound 4 µM) was 0.896. It also gave a relative viability ([4]; first compound 0.1265 µM) of 0.613, a relative viability ([4]; first compound 0.4 µM) of 0.912 and a relative viability ([4]; first compound 1.265 µM) of 0.45. For the same compound, the relative viability ([4]; first compound 4 µM) was 0.723, the relative viability ([5]; first compound 0.04 µM) was 0.774 and the relative viability ([5]; first compound 0.1265 µM) was 0.841. For the same compound, the relative viability ([5]; first compound 0.4 µM) was 0.903, the relative viability ([5]; first compound 1.265 µM) was 0.726 and the relative viability ([5]; first compound 4 µM) was 0.639. For the same compound, the relative viability ([6]; first compound 0.04 µM) was 1.13, the relative viability ([6]; first compound 0.1265 µM) was 1.05 and the relative viability ([6]; first compound 0.4 µM) was 1.05. It also gave a relative viability ([6]; first compound 1.265 µM) of 1.17, a relative viability ([6]; first compound 4 µM) of 1.14 and a relative viability ([7]; first compound 0.04 µM) of 1.01. It also gave a relative viability ([7]; first compound 0.1265 µM) of 1, a relative viability ([7]; first compound 0.4 µM) of 0.998 and a relative viability ([7]; first compound 1.265 µM) of 0.945. It also gave a relative viability ([7]; first compound 4 µM) of 0.954, a relative viability ([8]; first compound 0.04 µM) of 0.884 and a relative viability ([8]; first compound 0.1265 µM) of 0.849. For the same compound, the relative viability ([8]; first compound 0.4 µM) was 0.882, the relative viability ([8]; first compound 1.265 µM) was 0.89 and the relative viability ([8]; first compound 4 µM) was 0.851. For the same compound, the relative viability ([9]; first compound 0.04 µM) was 1.09, the relative viability ([9]; first compound 0.1265 µM) was 1.15 and the relative viability ([9]; first compound 1.265 µM) was 1.09. The relative viability ([9]; first compound 4 µM) was 1.4, the relative viability ([10]; first compound 0.04 µM) was 0.242 and the relative viability ([10]; first compound 0.1265 µM) was 0.297. For the same compound, the relative viability ([10]; first compound 0.4 µM) was 0.324, the relative viability ([10]; first compound 1.265 µM) was 0.224 and the relative viability ([10]; first compound 4 µM) was 0.476. It also gave a relative viability ([11]; first compound 0.04 µM) of 0.845, a relative viability ([11]; first compound 0.1265 µM) of 0.692 and a relative viability ([11]; first compound 0.4 µM) of 0.497. It also gave a relative viability ([11]; first compound 1.265 µM) of 0.432, a relative viability ([11]; first compound 4 µM) of 0.323 and a relative viability ([12]; first compound 0.1265 µM) of 0.938. The relative viability ([12]; first compound 0.4 µM) was 0.912, the relative viability ([12]; first compound 1.265 µM) was 0.897 and the relative viability ([12]; first compound 4 µM) was 1.05. For the same compound, the relative viability ([13]; first compound 0.04 µM) was 0.881, the relative viability ([13]; first compound 0.1265 µM) was 0.934 and the relative viability ([13]; first compound 0.4 µM) was 0.775. It also gave a relative viability ([13]; first compound 1.265 µM) of 0.767, a relative viability ([13]; first compound 4 µM) of 0.737 and a relative viability ([14]; first compound 0.04 µM) of 0.709. For the same compound, the relative viability ([14]; first compound 0.1265 µM) was 0.596, the relative viability ([14]; first compound 0.4 µM) was 0.566 and the relative viability ([14]; first compound 1.265 µM) was 0.682. It also gave a relative viability ([14]; first compound 4 µM) of 0.751, a relative viability ([15]; first compound 0.04 µM) of 0.955 and a relative viability ([15]; first compound 0.1265 µM) of 1.1. The relative viability ([15]; first compound 0.4 µM) was 0.971, the relative viability ([15]; first compound 1.265 µM) was 0.606 and the relative viability ([15]; first compound 4 µM) was 0.711. It also gave a relative viability ([16]; first compound 0.04 µM) of 0.774, a relative viability ([16]; first compound 0.1265 µM) of 0.79 and a relative viability ([16]; first compound 0.4 µM) of 0.68. The relative viability ([16]; first compound 1.265 µM) was 0.524, the relative viability ([16]; first compound 4 µM) was 0.462 and the relative viability ([17]; first compound 0.04 µM) was 0.925. The relative viability ([17]; first compound 0.1265 µM) was 0.582, the relative viability ([17]; first compound 0.4 µM) was 1.07 and the relative viability ([17]; first compound 1.265 µM) was 0.941. The relative viability ([17]; first compound 4 µM) was 0.86, the relative viability ([18]; first compound 0.04 µM) was 0.633 and the relative viability ([18]; first compound 0.1265 µM) was 0.657. The relative viability ([18]; first compound 0.4 µM) was 0.727, the relative viability ([18]; first compound 1.265 µM) was 0.713 and the relative viability ([18]; first compound 4 µM) was 0.799. For the same compound, the relative viability ([19]; first compound 0.04 µM) was 1.09, the relative viability ([19]; first compound 0.1265 µM) was 1.14 and the relative viability ([19]; first compound 0.4 µM) was 1.1. For the same compound, the relative viability ([19]; first compound 1.265 µM) was 0.984, the relative viability ([19]; first compound 4 µM) was 0.973 and the relative viability ([20]; first compound 0.04 µM) was 0.761. The relative viability ([20]; first compound 0.1265 µM) was 0.833, the relative viability ([20]; first compound 0.4 µM) was 0.795 and the relative viability ([20]; first compound 1.265 µM) was 0.46. The relative viability ([20]; first compound 4 µM) was 0.803, the relative viability ([21]; first compound 0.04 µM) was 0.938 and the relative viability ([21]; first compound 0.1265 µM) was 0.777. The relative viability ([21]; first compound 0.4 µM) was 0.742, the relative viability ([21]; first compound 1.265 µM) was 0.779 and the relative viability ([21]; first compound 4 µM) was 0.799. The relative viability ([22]; first compound 0.04 µM) was 0.888, the relative viability ([22]; first compound 0.1265 µM) was 0.914 and the relative viability ([22]; first compound 0.4 µM) was 0.823. It also gave a relative viability ([22]; first compound 4 µM) of 0.814.
